# Measurements: patent US12485114B2, “Materials and methods useful to induce cancer cell death via methuosis or autophagy or a combination thereof” (The University of Toledo, priority 2017, dated 2025)
# Experiments:
# HCT-116 (colon cancer) = assay: Morphological assessment of vacuolization; assay type: cell-based
# Text: (§1) The methuophagy inducing activities of BAPT-27 were also prominent in different colon cancer cell lines with different genetic profiles. […] (FIG. 42). However, the vacuoles formation was not prominent in normal epithelial colon cells (CRL-1459). (FIG. 42).
# [1] = system: HCT15 colon cancer cell line; assay: Morphological assessment of vacuolization; assay type: cell-based
# Text: as §1
# [2] = system: HT29 colon cancer cell line; assay: Morphological assessment of vacuolization; assay type: cell-based
# Text: as §1
# [3] = system: HCT116 colon cancer cells; assay: Colony formation assay; assay type: cell-based
# Experimental: The cytotoxic efficacy of BAPT-27 was also confirmed by colony formation assay. Colony formation assay was used to determine the long-term capacities of the compound to inhibit cell proliferation and viability. The cells were treated for 2 or 3 days and allowed to grow in compound free medium for up to two weeks. […] It was also observed that a higher concentration of BAPT-27 was needed to reduce the colony formation at 48 h compared to longer treatment (72 h). (FIG. 28A).
# The cells were treated for 2 or 3 days and allowed to grow in compound free medium for up to two weeks. […] The number of colonies formed/concentration at each time point is shown in the bar graph in FIG. 28B.
# [4] = system: normal epithelial colon cells (CRL-1459); assay: Morphological assessment of vacuolization in normal cells; assay type: cell-based; conditions: CRL-1459 normal cells
# Text: as §1
# HCT-116 cells = assay: 3D transmission electron tomography of lysosomes; assay type: cell-based
# Text: The 3D reconstruction was loaded into the Avizo 3D Visualization software to reveal lysosomal structure through volume rendering and segmentation. FIGS. 50B-50C show increased autophagic vesicles (yellow) and increased lysosomal cargo (green).
# (FIG. 50A & FIG. 50B & FIG. 50C).
# [5] = target: T1, phosphoinositide 5-kinase (PIKfyve) (Homo sapiens, UniProt Q9Y2I7); assay: Kinome screening (DiscoverX) against 468 kinases; assay type: binding
# T1 construct: purchased DiscoverX (KINOMEscan)
# T1 sequence (Q9Y2I7 whole entry): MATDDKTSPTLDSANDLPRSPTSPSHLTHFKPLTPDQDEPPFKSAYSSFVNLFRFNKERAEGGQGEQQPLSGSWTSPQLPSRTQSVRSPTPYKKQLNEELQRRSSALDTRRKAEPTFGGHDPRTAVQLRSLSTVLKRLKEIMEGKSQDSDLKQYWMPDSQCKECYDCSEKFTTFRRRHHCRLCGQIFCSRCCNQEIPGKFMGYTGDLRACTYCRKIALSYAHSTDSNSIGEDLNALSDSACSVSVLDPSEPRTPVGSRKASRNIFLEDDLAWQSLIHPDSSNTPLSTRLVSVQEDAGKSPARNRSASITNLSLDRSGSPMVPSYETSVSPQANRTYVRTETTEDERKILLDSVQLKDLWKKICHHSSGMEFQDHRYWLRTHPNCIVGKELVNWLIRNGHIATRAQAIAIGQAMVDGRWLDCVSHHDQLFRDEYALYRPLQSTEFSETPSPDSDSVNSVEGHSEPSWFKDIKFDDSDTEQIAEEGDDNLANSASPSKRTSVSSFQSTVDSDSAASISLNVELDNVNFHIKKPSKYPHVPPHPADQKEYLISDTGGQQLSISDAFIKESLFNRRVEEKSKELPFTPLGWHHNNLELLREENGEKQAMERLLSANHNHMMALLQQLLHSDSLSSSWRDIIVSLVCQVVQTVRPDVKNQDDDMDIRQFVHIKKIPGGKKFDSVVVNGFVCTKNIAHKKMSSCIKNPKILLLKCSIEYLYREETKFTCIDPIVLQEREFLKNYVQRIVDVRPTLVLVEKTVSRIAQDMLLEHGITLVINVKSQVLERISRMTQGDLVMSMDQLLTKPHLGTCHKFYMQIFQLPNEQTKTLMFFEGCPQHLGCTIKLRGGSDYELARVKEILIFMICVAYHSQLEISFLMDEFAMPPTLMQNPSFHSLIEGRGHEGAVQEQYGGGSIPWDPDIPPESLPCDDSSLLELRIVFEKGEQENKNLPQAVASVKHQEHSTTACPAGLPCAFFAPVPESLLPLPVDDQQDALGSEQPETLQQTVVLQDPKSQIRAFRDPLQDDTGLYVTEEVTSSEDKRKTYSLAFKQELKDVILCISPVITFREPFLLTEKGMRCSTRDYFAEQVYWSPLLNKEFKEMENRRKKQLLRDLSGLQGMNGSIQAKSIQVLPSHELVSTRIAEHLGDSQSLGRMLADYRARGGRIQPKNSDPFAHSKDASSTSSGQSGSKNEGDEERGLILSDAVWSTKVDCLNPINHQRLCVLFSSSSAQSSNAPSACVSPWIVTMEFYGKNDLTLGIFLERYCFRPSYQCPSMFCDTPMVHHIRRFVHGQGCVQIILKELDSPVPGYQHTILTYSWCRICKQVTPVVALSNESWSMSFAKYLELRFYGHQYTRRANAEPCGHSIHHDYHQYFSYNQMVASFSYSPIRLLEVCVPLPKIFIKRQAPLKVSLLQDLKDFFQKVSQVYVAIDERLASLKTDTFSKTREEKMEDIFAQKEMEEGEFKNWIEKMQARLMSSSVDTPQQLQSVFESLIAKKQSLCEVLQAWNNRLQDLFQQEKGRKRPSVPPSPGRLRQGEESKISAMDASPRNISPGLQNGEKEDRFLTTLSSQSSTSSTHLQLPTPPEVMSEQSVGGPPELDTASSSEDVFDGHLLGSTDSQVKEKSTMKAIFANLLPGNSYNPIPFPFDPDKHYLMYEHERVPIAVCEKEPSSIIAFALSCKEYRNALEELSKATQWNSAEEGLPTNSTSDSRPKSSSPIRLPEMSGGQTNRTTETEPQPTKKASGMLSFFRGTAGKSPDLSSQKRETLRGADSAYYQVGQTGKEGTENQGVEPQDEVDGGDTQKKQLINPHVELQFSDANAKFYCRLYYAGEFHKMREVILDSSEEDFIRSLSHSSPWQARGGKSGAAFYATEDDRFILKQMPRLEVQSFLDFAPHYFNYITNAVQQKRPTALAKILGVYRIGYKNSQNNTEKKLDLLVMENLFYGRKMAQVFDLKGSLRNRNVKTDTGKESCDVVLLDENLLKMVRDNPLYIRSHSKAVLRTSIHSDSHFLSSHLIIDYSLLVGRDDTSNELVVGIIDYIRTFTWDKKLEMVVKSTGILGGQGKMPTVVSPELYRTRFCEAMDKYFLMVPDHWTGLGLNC
# Experimental: (§2) FIG. 49A: Image showing the effect of Image was generated using TREEspot™ Software Tool and reprinted with permission from KINOMEscan®, a division of DiscoveRx Corporation, @ DISCOVERX CORPORATION 2010. Selectivity Score or S-score is a quantitative measure of compound selectivity. It was calculated by dividing the number of kinases that BAPT-27 bind to by the total number of distinct kinases tested, excluding mutant variants.
# JNK1 = target: T2, JNK1 (Homo sapiens, UniProt P45983); assay: Kinome screening (DiscoverX) against 468 kinases; assay type: binding
# T2 construct: purchased DiscoverX (KINOMEscan)
# T2 sequence (P45983 whole entry): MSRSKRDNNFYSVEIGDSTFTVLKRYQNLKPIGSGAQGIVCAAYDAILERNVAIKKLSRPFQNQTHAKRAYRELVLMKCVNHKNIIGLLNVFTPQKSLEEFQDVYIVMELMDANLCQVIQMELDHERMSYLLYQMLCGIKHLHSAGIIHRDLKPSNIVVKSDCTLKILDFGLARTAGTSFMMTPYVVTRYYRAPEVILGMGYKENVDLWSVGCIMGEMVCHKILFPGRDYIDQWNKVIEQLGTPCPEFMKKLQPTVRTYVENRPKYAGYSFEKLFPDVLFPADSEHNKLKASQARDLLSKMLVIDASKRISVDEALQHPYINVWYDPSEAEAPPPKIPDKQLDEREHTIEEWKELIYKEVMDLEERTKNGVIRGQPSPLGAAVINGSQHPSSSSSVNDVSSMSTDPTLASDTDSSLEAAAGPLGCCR
# Experimental: as §2
# FLT3(D835V) = target: T3, FLT3(D835V) (Homo sapiens, UniProt P36888, D835V); assay: Kinome screening (DiscoverX) against 468 kinases; assay type: binding
# T3 construct: purchased DiscoverX (KINOMEscan)
# Experimental: as §2
# FLT3(ITD, D835V) = assay: Kinome screening (DiscoverX) against 468 kinases; assay type: binding
# Experimental: as §2
# DYRK1A = target: T4, DYRK1A (Homo sapiens, UniProt Q13627); assay: Kinome screening (DiscoverX) against 468 kinases; assay type: binding
# T4 construct: purchased DiscoverX (KINOMEscan)
# Experimental: as §2
# JNK2 = target: T5, JNK2 (Homo sapiens, UniProt P45984); assay: Kinome screening (DiscoverX) against 468 kinases; assay type: binding
# T5 construct: purchased DiscoverX (KINOMEscan)
# T5 sequence (P45984 whole entry): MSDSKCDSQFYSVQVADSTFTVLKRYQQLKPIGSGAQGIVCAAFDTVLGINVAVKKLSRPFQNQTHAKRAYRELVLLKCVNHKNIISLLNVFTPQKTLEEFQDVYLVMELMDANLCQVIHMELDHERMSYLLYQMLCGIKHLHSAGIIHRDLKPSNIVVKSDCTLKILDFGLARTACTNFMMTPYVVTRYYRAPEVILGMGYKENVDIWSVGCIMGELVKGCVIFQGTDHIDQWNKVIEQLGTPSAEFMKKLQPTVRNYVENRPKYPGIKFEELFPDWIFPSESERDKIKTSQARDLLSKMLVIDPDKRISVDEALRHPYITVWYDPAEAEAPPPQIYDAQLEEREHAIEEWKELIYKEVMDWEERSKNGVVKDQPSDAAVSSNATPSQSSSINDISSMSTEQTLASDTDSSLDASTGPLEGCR
# Experimental: as §2
# JNK3 = target: T6, JNK3 (Homo sapiens, UniProt P53779); assay: Kinome screening (DiscoverX) against 468 kinases; assay type: binding
# T6 construct: purchased DiscoverX (KINOMEscan)
# T6 sequence (P53779 whole entry): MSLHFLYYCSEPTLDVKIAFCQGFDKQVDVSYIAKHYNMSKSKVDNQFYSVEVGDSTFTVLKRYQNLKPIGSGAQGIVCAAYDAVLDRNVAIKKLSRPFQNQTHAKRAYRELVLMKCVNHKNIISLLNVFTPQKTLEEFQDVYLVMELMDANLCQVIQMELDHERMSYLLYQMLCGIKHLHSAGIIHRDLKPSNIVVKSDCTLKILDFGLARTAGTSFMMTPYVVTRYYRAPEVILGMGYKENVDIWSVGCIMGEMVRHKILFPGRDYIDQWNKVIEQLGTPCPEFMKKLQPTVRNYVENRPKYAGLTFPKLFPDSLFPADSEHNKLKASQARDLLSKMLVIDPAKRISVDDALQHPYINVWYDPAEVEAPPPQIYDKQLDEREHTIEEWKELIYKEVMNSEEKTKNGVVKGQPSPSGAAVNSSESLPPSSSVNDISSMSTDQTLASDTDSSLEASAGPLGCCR
# Experimental: as §2
# ABL1 T315I = target: T7, ABL1 T315I (Homo sapiens, UniProt P00519, T315I); assay: Kinome screening (DiscoverX) against 468 kinases; assay type: binding
# T7 construct: purchased DiscoverX (KINOMEscan)
# Experimental: as §2
# TFEB-mTOR pathway = assay: mTOR, Beclin-1 and LC3B-II autophagy related markers; assay type: cell-based
# Text: Autophagosome and lysosomal homeostasis is governed by transcription factor EB (TFEB)—mTOR signaling pathways (TFEB-mTOR pathway). […] (FIG. 51A & FIG. 51B & FIG. 51C).
smiles,measurement,setting,value
"Sc1nnc(-c2ccncc2)n1/N=C/c1c[nH]c2ccccc12 [BAPT-27, 4-(((1H-Indol-3-Yl)Methylene)Amino)-5-(Pyridin-4-Yl)-4H-1,2,4-Triazole-3-Thiol]",vacuolization,HCT-116 (colon cancer),extensive vacuoles formation
same,vacuolization,[1],extensive vacuoles formation
same,vacuolization,[2],extensive vacuoles formation
same,colonies number and size,"[3]; HCT116, 48 h and 72 h, especially after 72 h treatment",significant inhibition in the colonies number and size
same,colony formation,"[3]; treated two and three days, then compound free medium up to two weeks",significantly inhibited colony formation
same,vacuoles formation,[4],not prominent
same,autophagic vesicles and lysosomal cargo,HCT-116 cells,increased autophagic vesicles and increased lysosomal cargo
same,lysosomal size,HCT-116 cells,significant increase in lysosomal size
same,inhibitory potency,[5],shows inhibitory potency
same,inhibitory potency,JNK1,shows inhibitory potency
same,inhibitory potency,FLT3(D835V),shows inhibitory potency
same,inhibitory potency,"FLT3(ITD, D835V)",shows inhibitory potency
same,inhibitory potency,DYRK1A,shows inhibitory potency
same,inhibitory potency,JNK2,shows inhibitory potency
same,inhibitory potency,JNK3,shows inhibitory potency
same,inhibitory potency,ABL1 T315I,shows inhibitory potency
same,Beclin-1 level,TFEB-mTOR pathway,increased
same,LC3B-II level,TFEB-mTOR pathway,increased
same,mTOR level,TFEB-mTOR pathway,significantly downregulated
